Data published in PMC3836994, “Killer Bee Molecules: Antimicrobial Peptides as Effector Molecules to Target Sporogonic Stages of Plasmodium” (PLoS Pathogens, 2013).
No end group written: not given here.

How the values were obtained:
[1] = system: Anopheles gambiae Sua 4.0 cells; assay: Sua 4.0 mosquito cell growth (cell counts); format: cell-based; conditions: 25 µM AMP; for Average number of cells over 3 replicates, peptide: seeded 30×10^4/ml, mean of 3 experiments
Description: (§1) To establish potential effects of AMPs on mosquito cells, the An. gambiae Sua 4.0 cell line was used. This facilitated an initial high-throughput screening and provided insights into AMP toxicity, mode of action (lytic or other) and speed of action. Sua 4.0 cells were maintained at 27°C in Schneider's insect medium supplemented with 10% FBS (foetal bovine serum) in T25 culture flasks (Fisher, UK).
(§2) Each AMP was tested separately to establish if it affected cell viability and growth. […] Cells were maintained for 3, 6, 24 or 48 h, after which they were resuspended and a sub-sample from duplicate wells counted using a haemocytometer. To establish cell viability after 48 h (whether simply arrested in development or non-viable), resuspended cells were added to an equal volume of 5% erythrosin B vital dye and viable cells excluding the stain were counted. The viability of 100 cells in triplicate wells was recorded. Each AMP assay was performed in triplicate and included a negative control minus the peptide (5 µl of water alone added to the medium) and a further control of 5 µl of 10% SDS (sodium dodecyl sulphate) substituted for the AMP as this causes 100% cell lysis.

[2] = system: Anopheles gambiae Sua 4.0 cells; assay: Sua 4.0 mosquito cell viability (erythrosin B exclusion); format: cell-based; parameters: dose or concentration left out as unconfirmed; conditions: after 48 h culture; for Average viability of cells (3 replicates), peptide: erythrosin B exclusion, 100 cells in triplicate wells; for Reduction in cell viability: versus control
Description: as §1, §2

P. berghei ookinetes = assay: P. berghei ookinete viability in vitro (erythrosin B); format: cell-based, Plasmodium berghei; conditions: 30 min; for Reduction in ookinete viability: versus control
Description: Our primary aim was to target parasites in mosquitoes before they cross the midgut wall, therefore AMPs were first assessed for their ability to kill ookinetes in vitro. […] Ookinete cultures of P. berghei were established from gametocytaemic blood as previously described. Parasites were enriched using cold 0.17M ammonium chloride after 18 h of culture and washed thoroughly with PBS (phosphate buffered saline). Parasites were seeded in triplicate wells of a 96-well microtitre plate at a density of 1×10^5/ml in a volume of 47.5 µl Schneider's insect medium (Invitrogen) with 2.5 µl of the test AMP (final concentration of 50 µM). Ookinetes were incubated for 30 min in conjunction with triplicate control wells containing medium with 2.5 µl of water instead of AMP. A sub-sample of parasites was then added to an equal volume of 5% erythrosin B to assess viability (150 ookinetes in total, taken from 3 wells). Each of the 33 AMPs was screened in this way and assays were performed 3 times. AMPs displaying a high degree of toxicity (>90% of ookinetes displaying erythrosin B staining) underwent further ookinete assays using a concentration of 100 µM AMP. To assess synergistic effects, combinations of two peptides were also tested at a concentration of 25 µM per AMP, in the assay described above.

[3] = system: An. gambiae (Mali strain); assay: Mosquito longevity after blood feeds containing AMP; format: in vivo, Anopheles gambiae; conditions: for Significance of effect on longevity over 10 days: 50 µM AMP, Kaplan-Meier, Wilcoxon, peptide vs control; for Percent alive, peptide: over 10 days, 50 µM AMP in human blood, feeds on days 0 and 7, 3 or 4 replicates
Description: (§3) Female An. gambiae (Mali strain, 3–5 days old) were used to establish the effects of AMPs on mosquito longevity and fecundity in the absence of confounding factors introduced with parasite infection. Two hundred 3–6 day old females were fed on human O+ whole blood supplemented with 50 µM AMP (or water control, 1 ml total volume) via feeding chambers of a Hemotek membrane feeding system. Fully engorged mosquitoes were randomly moved into four separate cages, each containing 25 mosquitoes, to facilitate monitoring. Mortality rates were recorded daily for a 10-day period, and oviposition sites were provided on the second and third night post-feeding. A second blood feed containing the same AMP was administered 7 days later to mimic the likelihood that mosquitoes would feed at least twice in the field during the development of sporogonic stages of the malaria parasite. Oviposition sites were again provided to assess fecundity through the number of eggs laid as an average per surviving mosquito. Assays for each AMP were repeated in triplicate on separate generations of mosquitoes. Due to egg retention under experimental conditions, egg production is best measured by dissecting mosquitoes that have not been provided with an oviposition site. However, this is not a feasible method of determining fecundity when longevity is also being measured.

[4] = system: An. gambiae (Mali strain); assay: Mosquito oviposition after blood feed containing AMP; format: in vivo, Anopheles gambiae; conditions: for Significance of effect on oviposition: 50 µM AMP, one-way ANOVA, peptide vs control; for Mean no. of eggs laid per mosquito, peptide: after first feed with 50 µM AMP, eggs laid over two nights, averaged per surviving mosquito, 3 or 4 replicates
Description: as §3

P. falciparum = assay: Field P. falciparum from gametocyte carriers membrane-fed to An. gambiae (Mali); format: in vivo, Plasmodium falciparum; conditions: 50 µM; for Oocyst prevalence (oocyst positive mosquitoes), peptide: blood of gametocyte carriers, progeny of field An. gambiae; for Oocyst intensity (mean number of oocysts per gut, range in parentheses), peptide: field parasites and mosquitoes
[5] = system: An. gambiae (Mali strain); assay: Mosquito longevity after blood feeds containing AMP; format: in vivo, Anopheles gambiae; conditions: 50 µM AMP in blood on days 0 and 7; extended to 30 days
[6] = 3 hrs in culture, haemocytometer count of duplicate wells
[7] = 50 µM of single peptide, n = 150 ookinetes per treatment per replicate

| Sequence | Reduction in cell number (compared to control) ([1]; 3 hrs in culture) | Average number of cells over 3 replicates, peptide [1, 6] | Reduction in cell number (compared to control) ([1]; 24 hrs in culture) | Average number of cells over 3 replicates, peptide ([1]; 24 hrs in culture) | Reduction in cell number (compared to control) ([1]; 48 hrs in culture) | Average number of cells over 3 replicates, peptide ([1]; 48 hrs in culture) | Average viability of cells (3 replicates), peptide [2] | Reduction in cell viability [2] | Average ookinete viability (3 reps), peptide (P. berghei ookinetes; [7]) | Reduction in ookinete viability (P. berghei ookinetes; 50 µM of single peptide) | Significance of effect on longevity over 10 days [3] | Percent alive, peptide [3] | Significance of effect on oviposition [4] | Mean no. of eggs laid per mosquito, peptide [4] | Oocyst prevalence (oocyst positive mosquitoes), peptide (P. falciparum; Replicate 1) | Oocyst intensity (mean number of oocysts per gut, range in parentheses), peptide (P. falciparum; Replicate 1) | Oocyst prevalence (oocyst positive mosquitoes), peptide (P. falciparum; Replicate 2) | Oocyst intensity (mean number of oocysts per gut, range in parentheses), peptide (P. falciparum; Replicate 2) | Effect on longevity over 30 days (in words) [5] | further results |
| --- | --- | --- | --- | --- | --- | --- | --- | --- | --- | --- | --- | --- | --- | --- | --- | --- | --- | --- | --- | --- |
| AGYLLGKINLKALAALAKKILGGAGYLLGKINLKALAALAKKIL [TP10 dimer, TP10 (dimer)] | 20% | 240000 mL⁻¹ | 42% | 250000 mL⁻¹ | 58% | 260000 mL⁻¹ | 1% | 99% | 0% | 100% | N/S | 76% | N/S | 25 | 9% (58) | <1 (0–4) | 3% (38) | <1 (0–1) | significant reduction in survivorship | Oocyst prevalence (oocyst positive mosquitoes), peptide (P. falciparum; Replicate 3): 20% (49); Oocyst intensity (mean number of oocysts per gut, range in parentheses), peptide (P. falciparum; Replicate 3): <1 (0–2) |
| KFPKFRRGIPFLFVGPSGKFPKFRRGIPFLFV [Vida 3 dimer] | 7% | 280000 mL⁻¹ | 62% | 170000 mL⁻¹ | 72% | 190000 mL⁻¹ | 58% | 38% | 4% | 96% | N/S | 68% | N/S | 43 | 3% (63) | <1 (0–1) | 0% (45) | 0 | no significant long-term effects on longevity | Reduction in cell number (compared to control) ([1]; 24 hrs in culture, listed as Vida3 dimer): 62%; Average viability of cells (3 replicates), peptide ([2]; listed as Vida3 dimer): above 50%; Average ookinete viability (3 reps), peptide (P. berghei ookinetes; 100 µM of single peptide): 0%; Reduction in ookinete viability (P. berghei ookinetes; 100 µM of single peptide): 100%; Reduction in ookinete viability (P. berghei ookinetes; 100 µM of single peptide, listed as Vida3 dimer): 100% |
